Assays:
[1] = target: T1, Protein deacetylase HDAC6 (Homo sapiens) (UniProt Q9UBN7); assay: Inhibition of HDAC6 (unknown origin) using p53 residues 379 to 382 [RHKK(Ac)] as fluorogenic substrate assessed as residual activity at 1.52 x 10^-9M (reference value: 101.06%); conditions: dose 1.52 10^-9M
T1 sequence (whole entry): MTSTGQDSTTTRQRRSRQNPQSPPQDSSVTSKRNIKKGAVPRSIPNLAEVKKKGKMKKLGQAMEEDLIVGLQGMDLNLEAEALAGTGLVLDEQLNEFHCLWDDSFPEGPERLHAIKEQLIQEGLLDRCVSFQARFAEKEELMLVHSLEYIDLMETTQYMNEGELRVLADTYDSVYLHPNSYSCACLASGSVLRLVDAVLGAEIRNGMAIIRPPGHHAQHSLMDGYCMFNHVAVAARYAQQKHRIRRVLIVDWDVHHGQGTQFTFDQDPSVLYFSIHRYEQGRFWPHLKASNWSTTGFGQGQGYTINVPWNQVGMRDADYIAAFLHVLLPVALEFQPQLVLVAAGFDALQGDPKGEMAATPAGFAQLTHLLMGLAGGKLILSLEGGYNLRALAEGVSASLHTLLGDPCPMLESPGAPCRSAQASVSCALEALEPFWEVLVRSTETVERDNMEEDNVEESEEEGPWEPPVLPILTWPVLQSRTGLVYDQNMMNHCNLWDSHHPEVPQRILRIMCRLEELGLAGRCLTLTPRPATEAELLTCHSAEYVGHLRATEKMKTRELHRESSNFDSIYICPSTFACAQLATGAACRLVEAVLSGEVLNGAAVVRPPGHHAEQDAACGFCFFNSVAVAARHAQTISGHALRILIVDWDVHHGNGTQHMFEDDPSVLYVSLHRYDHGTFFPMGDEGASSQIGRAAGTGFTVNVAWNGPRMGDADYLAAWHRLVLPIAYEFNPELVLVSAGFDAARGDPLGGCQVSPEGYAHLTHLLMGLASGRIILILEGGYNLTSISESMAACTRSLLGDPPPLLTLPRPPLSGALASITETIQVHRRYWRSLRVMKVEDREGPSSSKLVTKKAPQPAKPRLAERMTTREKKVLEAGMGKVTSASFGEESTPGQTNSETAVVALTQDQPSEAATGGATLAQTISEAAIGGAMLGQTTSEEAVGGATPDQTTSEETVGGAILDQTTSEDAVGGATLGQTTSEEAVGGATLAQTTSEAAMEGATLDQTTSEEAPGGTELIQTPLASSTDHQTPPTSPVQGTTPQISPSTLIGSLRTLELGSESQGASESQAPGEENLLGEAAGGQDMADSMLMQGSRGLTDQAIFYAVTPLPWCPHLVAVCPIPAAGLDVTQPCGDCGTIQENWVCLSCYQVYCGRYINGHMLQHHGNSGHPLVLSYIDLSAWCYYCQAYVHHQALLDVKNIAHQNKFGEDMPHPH

[2] = target: T2, Histone deacetylase 7 (Homo sapiens) (UniProt Q8WUI4); assay: Inhibition of HDAC7 (unknown origin) assessed as residual activity at 1.23 x 10^-7M (reference value: 102.66%); conditions: dose 1.23 10^-7M
T2 sequence (whole entry): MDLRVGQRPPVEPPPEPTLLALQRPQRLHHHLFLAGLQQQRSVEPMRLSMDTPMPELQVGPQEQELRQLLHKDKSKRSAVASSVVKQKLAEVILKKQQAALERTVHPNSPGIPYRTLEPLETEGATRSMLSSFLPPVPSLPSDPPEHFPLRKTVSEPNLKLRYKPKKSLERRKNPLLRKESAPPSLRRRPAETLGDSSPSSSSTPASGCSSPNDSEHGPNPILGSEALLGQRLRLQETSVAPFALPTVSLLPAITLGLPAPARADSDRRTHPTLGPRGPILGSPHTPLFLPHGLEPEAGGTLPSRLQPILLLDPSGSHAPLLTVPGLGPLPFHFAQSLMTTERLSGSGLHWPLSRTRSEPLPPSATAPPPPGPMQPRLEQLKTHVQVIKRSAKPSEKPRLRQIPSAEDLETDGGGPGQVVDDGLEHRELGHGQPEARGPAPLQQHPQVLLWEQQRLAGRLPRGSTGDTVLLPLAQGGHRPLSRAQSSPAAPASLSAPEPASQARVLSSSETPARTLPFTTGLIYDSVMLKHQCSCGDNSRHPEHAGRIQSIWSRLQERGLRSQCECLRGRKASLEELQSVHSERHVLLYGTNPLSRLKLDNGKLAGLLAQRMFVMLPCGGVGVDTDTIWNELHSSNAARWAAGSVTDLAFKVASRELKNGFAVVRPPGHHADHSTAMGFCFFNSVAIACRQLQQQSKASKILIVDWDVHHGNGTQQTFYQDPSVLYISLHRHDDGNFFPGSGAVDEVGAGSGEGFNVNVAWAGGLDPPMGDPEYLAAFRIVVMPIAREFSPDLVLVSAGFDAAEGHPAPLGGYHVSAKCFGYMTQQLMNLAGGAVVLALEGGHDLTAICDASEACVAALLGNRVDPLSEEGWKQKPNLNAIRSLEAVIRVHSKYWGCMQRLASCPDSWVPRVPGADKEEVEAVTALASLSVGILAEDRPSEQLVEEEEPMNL

[3] = target: T2, Histone deacetylase 7 (Homo sapiens); assay: Inhibition of HDAC7 (unknown origin) assessed as residual activity at 4.57 x 10^-9M (reference value: 102.66%); conditions: dose 4.57 10^-9M
HL-60 = assay: Downregulation of HDAC3 protein expression in human HL-60 cells by Western blot analysis; format: functional, cell-based; conditions: dose 0.2-5 µM

## NC(=O)c1cccc2[nH]c(-c3ccc(NCc4ccc(C(=O)Nc5ccccc5N)cc4)cc3)nc12
[1]
  Activity: 96.7%
[2]
  Activity: 89.1%
[3]
  Activity: 111%
HL-60
  Activity: Dose-Dependent Effect
